Common to all, as to format: functional
Assay [1] relates to Streptococcus pneumoniae. In words: Antimicrobial activity against erythromycin-resistant Streptococcus pneumoniae AB11 expressing the erm and mef gene by broth microdilution method.
Assay [2] deals with Staphylococcus aureus. In words: Antimicrobial activity against penicillin-susceptible Staphylococcus aureus P1 by broth microdilution method. (In general: Dilution methods test growth across graded concentrations, often in twofold steps.)
The test system of assay [3] is Streptococcus pneumoniae. In words: Antimicrobial activity against erythromycin-resistant Streptococcus pneumoniae B1 expressing the erm gene by broth microdilution method.
Assay [4] concerns Streptococcus pneumoniae. Kind of assay: Antimicrobial activity against erythromycin-resistant Streptococcus pneumoniae A22072 expressing the mef gene by broth microdilution method.
For assay [5], the system named is Staphylococcus aureus. Kind of assay: Antimicrobial activity against erythromycin-susceptible Staphylococcus aureus ATCC 25923 by broth microdilution method.
In assay [6] the test system is Streptococcus pneumoniae. Kind of assay: Antimicrobial activity against erythromycin-susceptible Streptococcus pneumoniae ATCC 49619 by broth microdilution method.
Assay [7] concerns Streptococcus pyogenes. In words: Antimicrobial activity against erythromycin-resistant Streptococcus pyogenes R2 by broth microdilution method.
Assay [8] concerns Streptococcus pyogenes. In words: Antimicrobial activity against erythromycin-susceptible Streptococcus pyogenes S2 by broth microdilution method.

In brackets after ≈: the same amount, converted by molar mass.

This note sets out measurements from ChEMBL document CHEMBL1667745, “Synthesis and antibacterial evaluation of novel clarithromycin derivatives with C-4″ elongated arylalkyl groups against macrolide-resistant strains” (2011).

As a reminder, the MIC is the smallest concentration in the dilution series that meets the test's criterion for growth inhibition. The low end stands for greater potency, the high end for weaker potency.

Regarding `CC[C@H]1OC(=O)[C@H](C)[C@@H](O[C@H]2C[C@@](C)(OC)[C@@H](OC(=O)NCCCC(=O)NCCc3ccccc3Cl)[C@H](C)O2)[C@H](C)[C@@H](O[C@@H]2O[C@H](C)C[C@H](N(C)C)[C@H]2O)[C@](C)(OC)C[C@@H](C)C(=O)[C@H](C)[C@@H](O)[C@]1(C)O`, the MIC in assay [1] came out at 32 µg/mL (≈ 31.5 µM); in assay [2], 32 µg/mL (≈ 31.5 µM); in assay [3], 32 µg/mL (≈ 31.5 µM); in assay [4] it was 1 µg/mL (≈ 0.986 µM); in assay [5], 0.25 µg/mL (≈ 0.246 µM); in assay [6] it was 0.03 µg/mL (≈ 0.0296 µM). The minimum inhibitory concentration (MIC) is 1 µg/mL (≈ 0.986 µM) in assay [7] and 0.03 µg/mL (≈ 0.0296 µM) in assay [8].

On to `CC[C@H]1OC(=O)[C@H](C)[C@@H](O[C@H]2C[C@@](C)(OC)[C@@H](OC(=O)NCCCC(=O)NC3CCCCC3)[C@H](C)O2)[C@H](C)[C@@H](O[C@@H]2O[C@H](C)C[C@H](N(C)C)[C@H]2O)[C@](C)(OC)C[C@@H](C)C(=O)[C@H](C)[C@@H](O)[C@]1(C)O`, for which the MIC came out at 64 µg/mL (≈ 66.8 µM) in assay [1]; 8 µg/mL (≈ 8.35 µM) in assay [2]; 32 µg/mL (≈ 33.4 µM) in assay [3]; 2 µg/mL (≈ 2.09 µM) in assay [4]; 0.5 µg/mL (≈ 0.522 µM) in assay [5]; 0.03 µg/mL (≈ 0.0313 µM) in assay [6]. The MIC is 8 µg/mL (≈ 8.35 µM) in assay [7] and 0.25 µg/mL (≈ 0.261 µM) in assay [8].

For `CC[C@H]1OC(=O)[C@H](C)[C@@H](O[C@H]2C[C@@](C)(OC)[C@@H](OC(=O)NCCCC(=O)NC(C)C)[C@H](C)O2)[C@H](C)[C@@H](O[C@@H]2O[C@H](C)C[C@H](N(C)C)[C@H]2O)[C@](C)(OC)C[C@@H](C)C(=O)[C@H](C)[C@@H](O)[C@]1(C)O`, the MIC in assay [1] was 128 µg/mL (≈ 139 µM); in assay [2], 8 µg/mL (≈ 8.71 µM); in assay [3], 128 µg/mL (≈ 139 µM); in assay [4], 8 µg/mL (≈ 8.71 µM); in assay [5] it was 0.25 µg/mL (≈ 0.272 µM); in assay [6] it was 0.03 µg/mL (≈ 0.0327 µM). In addition, the MIC was 16 µg/mL (≈ 17.4 µM) in assay [7] and 0.5 µg/mL (≈ 0.545 µM) in assay [8].

For `CCCNC(=O)CCCNC(=O)O[C@H]1[C@H](C)O[C@@H](O[C@H]2[C@H](C)[C@@H](O[C@@H]3O[C@H](C)C[C@H](N(C)C)[C@H]3O)[C@](C)(OC)C[C@@H](C)C(=O)[C@H](C)[C@@H](O)[C@](C)(O)[C@@H](CC)OC(=O)[C@@H]2C)C[C@@]1(C)OC`, the minimal inhibitory concentration (MIC) in assay [1] came out at 128 µg/mL (≈ 139 µM); in assay [2], 32 µg/mL (≈ 34.9 µM); in assay [3] it was 128 µg/mL (≈ 139 µM); in assay [4], 4 µg/mL (≈ 4.36 µM); in assay [5] it was 0.25 µg/mL (≈ 0.272 µM); in assay [6] it was 0.03 µg/mL (≈ 0.0327 µM). In addition, the values for the MIC in assay [7] and in assay [8] were 32 µg/mL (≈ 34.9 µM) and 1 µg/mL (≈ 1.09 µM), respectively.

Take `CCCCNC(=O)CCCNC(=O)O[C@H]1[C@H](C)O[C@@H](O[C@H]2[C@H](C)[C@@H](O[C@@H]3O[C@H](C)C[C@H](N(C)C)[C@H]3O)[C@](C)(OC)C[C@@H](C)C(=O)[C@H](C)[C@@H](O)[C@](C)(O)[C@@H](CC)OC(=O)[C@@H]2C)C[C@@]1(C)OC`: the MIC stood at 128 µg/mL (≈ 137 µM) in assay [1]; 8 µg/mL (≈ 8.58 µM) in assay [2]; 128 µg/mL (≈ 137 µM) in assay [3]; 8 µg/mL (≈ 8.58 µM) in assay [4]; 0.25 µg/mL (≈ 0.268 µM) in assay [5]; 0.03 µg/mL (≈ 0.0322 µM) in assay [6]. Moreover, the MIC was determined as 16 µg/mL (≈ 17.2 µM) in assay [7] and 0.5 µg/mL (≈ 0.536 µM) in assay [8].

Regarding `CCCCCNC(=O)CCCNC(=O)O[C@H]1[C@H](C)O[C@@H](O[C@H]2[C@H](C)[C@@H](O[C@@H]3O[C@H](C)C[C@H](N(C)C)[C@H]3O)[C@](C)(OC)C[C@@H](C)C(=O)[C@H](C)[C@@H](O)[C@](C)(O)[C@@H](CC)OC(=O)[C@@H]2C)C[C@@]1(C)OC`, the MIC in assay [1] stood at 32 µg/mL (≈ 33.8 µM); in assay [2], 16 µg/mL (≈ 16.9 µM); in assay [3], 8 µg/mL (≈ 8.45 µM); in assay [4], 2 µg/mL (≈ 2.11 µM); in assay [5], 0.5 µg/mL (≈ 0.528 µM); in assay [6], 0.03 µg/mL (≈ 0.0317 µM). Also, the MIC came to 16 µg/mL (≈ 16.9 µM) in assay [7] and 0.5 µg/mL (≈ 0.528 µM) in assay [8].

As for `CC[C@H]1OC(=O)[C@H](C)[C@@H](O[C@H]2C[C@@](C)(OC)[C@@H](OC(=O)NCCCCCC(=O)NCc3ccccc3)[C@H](C)O2)[C@H](C)[C@@H](O[C@@H]2O[C@H](C)C[C@H](N(C)C)[C@H]2O)[C@](C)(OC)C[C@@H](C)C(=O)[C@H](C)[C@@H](O)[C@]1(C)O`, the MIC in assay [1] was 64 µg/mL (≈ 64.4 µM); in assay [2], 8 µg/mL (≈ 8.05 µM); in assay [3] it was 64 µg/mL (≈ 64.4 µM); in assay [4] it was 2 µg/mL (≈ 2.01 µM); in assay [5], 0.5 µg/mL (≈ 0.503 µM); in assay [6] it was 0.03 µg/mL (≈ 0.0302 µM). For the same compound, the MIC in assay [7] is 0.25 µg/mL (≈ 0.251 µM); in assay [8], 0.12 µg/mL (≈ 0.121 µM).

Turning to `CC[C@H]1OC(=O)[C@H](C)[C@@H](O[C@H]2C[C@@](C)(OC)[C@@H](OC(=O)NCCCCCC(=O)NCc3ccc(F)cc3)[C@H](C)O2)[C@H](C)[C@@H](O[C@@H]2O[C@H](C)C[C@H](N(C)C)[C@H]2O)[C@](C)(OC)C[C@@H](C)C(=O)[C@H](C)[C@@H](O)[C@]1(C)O`, the MIC in assay [1] is 4 µg/mL (≈ 3.95 µM); in assay [2], 32 µg/mL (≈ 31.6 µM); in assay [3] it was 2 µg/mL (≈ 1.98 µM); in assay [4] it was 0.5 µg/mL (≈ 0.494 µM); in assay [5], 0.25 µg/mL (≈ 0.247 µM); in assay [6], 0.03 µg/mL (≈ 0.0296 µM). Besides, the figures for the minimal inhibitory concentration (MIC) in assay [7] and in assay [8] were 0.25 µg/mL (≈ 0.247 µM) and 0.03 µg/mL (≈ 0.0296 µM), respectively.

With `CC[C@H]1OC(=O)[C@H](C)[C@@H](O[C@H]2C[C@@](C)(OC)[C@@H](OC(=O)NCCCCCC(=O)NCc3ccc(OC)cc3)[C@H](C)O2)[C@H](C)[C@@H](O[C@@H]2O[C@H](C)C[C@H](N(C)C)[C@H]2O)[C@](C)(OC)C[C@@H](C)C(=O)[C@H](C)[C@@H](O)[C@]1(C)O`, the MIC in assay [1] is 64 µg/mL (≈ 62.5 µM); in assay [2], 1 µg/mL (≈ 0.976 µM); in assay [3] it was 64 µg/mL (≈ 62.5 µM); in assay [4], 0.5 µg/mL (≈ 0.488 µM); in assay [5], 0.12 µg/mL (≈ 0.117 µM); in assay [6] it was 0.03 µg/mL (≈ 0.0293 µM). Also, the MIC in assay [7] came out at 32 µg/mL (≈ 31.2 µM); in assay [8], 0.12 µg/mL (≈ 0.117 µM).

As for `CC[C@H]1OC(=O)[C@H](C)[C@@H](O[C@H]2C[C@@](C)(OC)[C@@H](OC(=O)NCCCCCC(=O)NCCc3ccc(O)cc3)[C@H](C)O2)[C@H](C)[C@@H](O[C@@H]2O[C@H](C)C[C@H](N(C)C)[C@H]2O)[C@](C)(OC)C[C@@H](C)C(=O)[C@H](C)[C@@H](O)[C@]1(C)O`, the MIC in assay [1] was determined as 64 µg/mL (≈ 62.5 µM); in assay [2], 1 µg/mL (≈ 0.976 µM); in assay [3], 64 µg/mL (≈ 62.5 µM); in assay [4], 8 µg/mL (≈ 7.81 µM); in assay [5], 0.25 µg/mL (≈ 0.244 µM); in assay [6], 0.06 µg/mL (≈ 0.0586 µM). The MIC was 64 µg/mL (≈ 62.5 µM) in assay [7] and 0.5 µg/mL (≈ 0.488 µM) in assay [8].

Turning to `CC[C@H]1OC(=O)[C@H](C)[C@@H](O[C@H]2C[C@@](C)(OC)[C@@H](OC(=O)NCCCCCC(=O)NCCc3ccccc3Cl)[C@H](C)O2)[C@H](C)[C@@H](O[C@@H]2O[C@H](C)C[C@H](N(C)C)[C@H]2O)[C@](C)(OC)C[C@@H](C)C(=O)[C@H](C)[C@@H](O)[C@]1(C)O`, the MIC in assay [1] is 32 µg/mL (≈ 30.7 µM); in assay [2], 0.5 µg/mL (≈ 0.48 µM); in assay [3], 64 µg/mL (≈ 61.4 µM); in assay [4], 1 µg/mL (≈ 0.959 µM); in assay [5], 0.25 µg/mL (≈ 0.24 µM); in assay [6], 0.03 µg/mL (≈ 0.0288 µM). In addition, the MIC was found to be 64 µg/mL (≈ 61.4 µM) in assay [7] and 0.06 µg/mL (≈ 0.0575 µM) in assay [8].

With `CC[C@H]1OC(=O)[C@H](C)[C@@H](O[C@H]2C[C@@](C)(OC)[C@@H](OC(=O)NCCCCCC(=O)NC3CCCCC3)[C@H](C)O2)[C@H](C)[C@@H](O[C@@H]2O[C@H](C)C[C@H](N(C)C)[C@H]2O)[C@](C)(OC)C[C@@H](C)C(=O)[C@H](C)[C@@H](O)[C@]1(C)O`, the minimal inhibitory concentration (MIC) in assay [1] worked out at 128 µg/mL (≈ 130 µM); in assay [2], 1 µg/mL (≈ 1.01 µM); in assay [3], 128 µg/mL (≈ 130 µM); in assay [4], 1 µg/mL (≈ 1.01 µM); in assay [5], 0.25 µg/mL (≈ 0.253 µM); in assay [6] it was 0.03 µg/mL (≈ 0.0304 µM). The MIC in assay [7] amounted to 32 µg/mL (≈ 32.4 µM); in assay [8], 0.12 µg/mL (≈ 0.122 µM).
